Assay results published in US8680113B2, “BMI-1 protein expression modulators” (PTC Therapeutics, Inc., priority 2008, dated 2014).

system: Bmi-1; assay: Sandwich ELISA Assay (Bmi-1 ELISA in HT-1080 cells); format: cell-based, human
Summary of the method: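 Lysate Bmi-1 was quantified against a recombinant GST-Bmi-1 standard (0-8000 pg/mL) by sandwich ELISA read at OD450 with OD570 reference. The ELISA used mouse monoclonal capture, rabbit anti-Bmi-1, HRP anti-rabbit IgG and TMB. Before lysis, HT-1080 cells seeded at 8000/well were exposed to compounds for 40-48 h at 37°C with 0.5% final DMSO.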

IC50, < 500 nM:
Cc1ccc(Nc2nc(-c3c(C)nc4ncccn34)cs2)cc1 [Cpd 85, 4-(2-methylimidazo[1,2-a]pyrimidin-3-yl)-N-(4-methylphenyl)-1,3-thiazol-2-amine]
Cc1nc2ccccn2c1-c1ccnc(Nc2ccc(Br)cc2)n1 [Cpd 114, N-(4-bromophenyl)-4-(2-methylimidazo[1,2-a]pyridin-3-yl)pyrimidin-2-amine]
Cc1nc2c(C)cccn2c1-c1csc(Nc2ccc(Cl)cc2)n1 [Cpd 224, N-(4-chlorophenyl)-4-(2,8-dimethylimidazo[1,2-a]pyridin-3-yl)-1,3-thiazol-2-amine]
Cc1nc2ccc(F)cn2c1-c1csc(Nc2ccc(Br)cc2Cl)n1 [Cpd 165, N-(4-bromo-2-chlorophenyl)-4-(6-fluoro-2-methylimidazo[1,2-a]pyridin-3-yl)-1,3-thiazol-2-amine]
CCN(CC)c1ccc(Nc2nccc(-c3cnc4ccccn34)n2)cc1 [Cpd 253, N,N-diethyl-N′-[4-(imidazo[1,2-a]pyridin-3-yl)pyrimidin-2-yl]benzene-1,4-diamine]
Cc1nc2ccccn2c1-c1ccnc(Nc2cccc(N(C)C)c2)n1 [Cpd 118, N,N-dimethyl-N′-[4-(2-methylimidazo[1,2-a]pyridin-3-yl)pyrimidin-2-yl]benzene-1,3-diamine]
Cc1nc2ccc(Cl)cn2c1-c1csc(Nc2ccc(C(C)(C)C)cc2)n1 [Cpd 112, N-(4-tert-butylphenyl)-4-(6-chloro-2-methylimidazo[1,2-a]pyridin-3-yl)-1,3-thiazol-2-amine]
Cc1nc2ccc(Cl)cn2c1-c1csc(Nc2ccc(C(C)C)cc2)n1 [Cpd 91, 4-(6-chloro-2-methylimidazo[1,2-a]pyridin-3-yl)-N-[4-(propan-2-yl)phenyl]-1,3-thiazol-2-amine]
CCc1ccc(Nc2nc(-c3c(C)nc4ncccn34)cs2)cc1 [Cpd 86, N-(4-ethylphenyl)-4-(2-methylimidazo[1,2-a]pyrimidin-3-yl)-1,3-thiazol-2-amine]
COc1ccc(Nc2nc(-c3c(C)nc4ncccn34)cs2)cc1Cl [Cpd 46, N-(3-chloro-4-methoxyphenyl)-4-(2-methylimidazo[1,2-a]pyrimidin-3-yl)-1,3-thiazol-2-amine]
COc1cc(Br)c(Nc2nccc(-c3cnc4ccccn34)n2)c(Br)c1 [Cpd 249, N-(2,6-dibromo-4-methoxyphenyl)-4-(imidazo[1,2-a]pyridin-3-yl)pyrimidin-2-amine]
Cc1nc2c(C)cccn2c1-c1csc(Nc2ccc(N(C)C)cc2)n1 [Cpd 221, N′-[4-(2,8-dimethylimidazo[1,2-a]pyridin-3-yl)-1,3-thiazol-2-yl]-N,N-dimethylbenzene-1,4-diamine]
Cc1nc2ccccn2c1-c1ccnc(Nc2cccc(O)c2)n1 [Cpd 190, 3-{[4-(2-methylimidazo[1,2-a]pyridin-3-yl)pyrimidin-2-yl]amino}phenol]
CCc1ccc(Nc2nc(-c3c(C)nc4ccccn34)cs2)cc1 [Cpd 192, N-(4-ethylphenyl)-4-(2-methylimidazo[1,2-a]pyridin-3-yl)-1,3-thiazol-2-amine]
Fc1ccccc1Nc1nccc(-c2cnc3ncccn23)n1 [Cpd 266, N-(2-fluorophenyl)-4-(imidazo[1,2-a]pyrimidin-3-yl)pyrimidin-2-amine]
Cc1nc2ccccn2c1-c1ccnc(N(C)c2ccc(N(C)C)cc2)n1 [Cpd 137, N,N,N′-trimethyl-N′-[4-(2-methylimidazo[1,2-a]pyridin-3-yl)pyrimidin-2-yl]benzene-1,4-diamine]
Cc1nc2ncccn2c1-c1csc(Nc2ccc(C(C)C)cc2)n1 [Cpd 87, 4-(2-methylimidazo[1,2-a]pyrimidin-3-yl)-N-[4-(propan-2-yl)phenyl]-1,3-thiazol-2-amine]
CCN(CC)c1ccc(Nc2nc(-c3c(C)nc4ccc(Cl)cn34)cs2)cc1 [Cpd 206, N′-[4-(6-chloro-2-methylimidazo[1,2-a]pyridin-3-yl)-1,3-thiazol-2-yl]-N,N-diethylbenzene-1,4-diamine]
COc1cccc(Nc2nc(-c3c(C)nc4ccccn34)cs2)c1 [Cpd 188, N-(3-methoxyphenyl)-4-(2-methylimidazo[1,2-a]pyridin-3-yl)-1,3-thiazol-2-amine]
c1cnc2ncc(-c3ccnc(Nc4ccc5c(c4)OCO5)n3)n2c1 [Cpd 259, N-(1,3-benzodioxol-5-yl)-4-(imidazo[1,2-a]pyrimidin-3-yl)pyrimidin-2-amine]
COc1ccc(Nc2nc(-c3c(C)nc4cc(C)ccn34)cs2)cc1Cl [Cpd 67, N-(3-chloro-4-methoxyphenyl)-4-(2,7-dimethylimidazo[1,2-a]pyridin-3-yl)-1,3-thiazol-2-amine]
Cc1ccc(Nc2nccc(-c3c(C)nc4ccccn34)n2)cc1 [Cpd 169, 4-(2-methylimidazo[1,2-a]pyridin-3-yl)-N-(4-methylphenyl)pyrimidin-2-amine]
COc1ccc(Nc2nc(-c3c(C)nc4ccccn34)cs2)cc1OC [Cpd 202, N-(3,4-dimethoxyphenyl)-4-(2-methylimidazo[1,2-a]pyridin-3-yl)-1,3-thiazol-2-amine]
Cc1nc2c(Cl)cc(Cl)cn2c1-c1csc(Nc2ccc3c(c2)OCO3)n1 [Cpd 220, N-(1,3-benzodioxol-5-yl)-4-(6,8-dichloro-2-methylimidazo[1,2-a]pyridin-3-yl)-1,3-thiazol-2-amine]
CCc1nc2ncccn2c1-c1csc(Nc2c(Br)cc(OC)cc2Br)n1 [Cpd 146, N-(2,6-dibromo-4-methoxyphenyl)-4-(2-ethylimidazo[1,2-a]pyrimidin-3-yl)-1,3-thiazol-2-amine]
CCCc1nc2ncccn2c1-c1csc(Nc2ccc(Br)cc2)n1 [Cpd 184, N-(4-bromophenyl)-4-(2-propylimidazo[1,2-a]pyrimidin-3-yl)-1,3-thiazol-2-amine]
CCc1nc2ncccn2c1-c1csc(Nc2ccc(OC)c(Cl)c2)n1 [Cpd 153, N-(3-chloro-4-methoxyphenyl)-4-(2-ethylimidazo[1,2-a]pyrimidin-3-yl)-1,3-thiazol-2-amine]
Cc1nc2ccccn2c1-c1csc(Nc2ccc(I)cc2)n1 [Cpd 53, N-(4-iodophenyl)-4-(2-methylimidazo[1,2-a]pyridin-3-yl)-1,3-thiazol-2-amine]
Cc1nc2ncccn2c1-c1nc(Nc2ccc(I)cc2)sc1C [Cpd 122, N-(4-iodophenyl)-5-methyl-4-(2-methylimidazo[1,2-a]pyrimidin-3-yl)-1,3-thiazol-2-amine]
CC(=O)c1ccc(Nc2nc(-c3c(C)nc4ccc(Br)cn34)cs2)cc1 [Cpd 99, 1-(4-{[4-(6-bromo-2-methylimidazo[1,2-a]pyridin-3-yl)-1,3-thiazol-2-yl]amino}phenyl)ethanone]
CCc1nc2ncccn2c1-c1csc(Nc2ccc(C(C)=O)cc2)n1 [Cpd 150, 1-(4-{[4-(2-ethylimidazo[1,2-a]pyrimidin-3-yl)-1,3-thiazol-2-yl]amino}phenyl)ethanone]
Cc1nc2ccc(Br)cn2c1-c1csc(Nc2ccc(Cl)cc2)n1 [Cpd 100, 4-(6-bromo-2-methylimidazo[1,2-a]pyridin-3-yl)-N-(4-chlorophenyl)-1,3-thiazol-2-amine]
